Measured values reported in publication PMC4104761, “Identification of a novel lytic peptide for the treatment of solid tumours” (Genes & Cancer, 2014).

Key:
[1] = test system: 142Br normal human skin fibroblasts; assay: LIVE/DEAD Viability/Cytotoxicity assay; assay type: cell-based; details: morphometric evaluation (Calcein), 35 µg Cypep-1/ml, 3 hours
Procedure: (§1) In order to visualise and quantify the cytotoxic action of Cypep-1 simultaneously, the LIVE/DEAD® Viability/Cytotoxicity Kit was employed according to the manufacturers instructions on monolayers of 30 000 cells in sterile 24 multi well dishes (Nunc™, Roskilde, Denmark), using the selected human osteosarcoma cell lines U2OS and SaOs2 as well as the two human fibroblast cell lines HFF1 (foreskin) and 142Br (skin).
(§2) The monolayer cultures were incubated with Cypep-1 for a period of 3 hours in concentrations ranging from 2.5 µg to 35 µg/ml. The cells were observed using an inverted fluorescence microscope (Nikon Eclipse 2000E, Tokyo, Japan) equipped with FITC (green fluorescence) and TRITC (red fluorescence) filter optics. The fluorescent cells were then photographed at a 10x magnification. The proportions of viable cells (live cells showing green fluorescence due to the presence of Calcein) and dead cells (red fluorescent due to the membrane penetration of Ethidium-Homodimer-1) were quantified using a Lucia G Morphometry System, Version 4.71 (Laboratory Imaging, Prague, Czech Republic).

[2] = test system: HFF1 normal human foreskin fibroblasts; assay: LIVE/DEAD Viability/Cytotoxicity assay; assay type: cell-based; details: morphometric evaluation (Calcein), 35 µg Cypep-1/ml, 3 hours
Procedure: as §1, §2

[3] = test system: mammary carcinoma AU 565; assay: MTT viability assay; assay type: cell-based, human; details: 20 µg Cypep-1/ml, 60 min incubation, most sensitive cell line
Procedure: (§3) Cypep-1 was tested in various concentrations on a total of 17 cell lines, which included 13 human and 1 murine tumour cell line(s), as well as 3 normal human cell lines. Listed in detail: 4 human osteosarcoma (U2OS, SaOS2, HOS and MNNG-HOS), 6 human glioblastoma (A172, GaMg, LN18, U87, U373 and T98G) and 3 human mammary carcinoma cell lines (MCF7, AU565 and MDA-MB-468) as well as an additional murine mammary carcinoma cell line (4T1). Furthermore, 3 normal human cell lines were included: 2 normal human fibroblast cell lines (HFF1 and 142Br) as well as normal human osteoblasts (HOB).
(§4) MTT proliferation assays were performed on all cell lines (with the exception of 142Br (human skin fibroblasts)), using monolayers of 15 000 cells in sterile 96 well tissue culture plates (Nunc™, Roskilde, Denmark), respectively. All cells were incubated with Cypep-1 dissolved in 0.9% NaCl, at the following concentrations: 0.1, 0.5, 1.0, 5, 10, 15, 20, 25, 30 and 35µg of Cypep-1 per ml and assayed after 15, 30, 45, 60, 75, 90, 180, 270 and 360 min.

[4] = test system: glioblastoma GaMg; assay: MTT viability assay; assay type: cell-based, human; details: 20 µg Cypep-1/ml, 60 min incubation, least sensitive cell line
Procedure: as §3, §4

[5] = test system: U87 cells; assay: Comparison of peptide variants by crystal violet staining and light microscopy
From the text: The sizes of the resulting in silico peptides varied from 10 to 30 amino acids. In order to facilitate their cellular internalisation, a TAT-HIV sequence was attached to the C-terminal ends. All peptides were […]. The peptide library was produced by Cambridge Peptides (Cambridge, UK). The peptides were then screened with the MTT (3-(4,5-dimethylthiazol-2-yl)-2,5-diphenyltetrazolium bromide) assay on U87 human glioma cells. Cellular morphology after peptide exposure was assessed by crystal violet staining and light microscopy. All experiments were performed in triplicate.
To increase the stability of the peptide, two further sub-formulations of the original formula (L-aa, containing only L-amino acids) were created: D-aa (retro inversed, (ri)), a peptide comprised of a backward sequence of the original in silico formula, yet made up solely of D-amino acids and an analogue peptide to original in silico peptide formula, comprised of D-amino acids. D-amino acids are highly resistant to protease mediated degradation and have a low immunogenic response. The respective peptide variants were tested in the following concentrations: 7.5, 10, 15, 20 and 25 µg/ml and incubated for 3 hours.

Work on YGRKKRRQRRRGKTLRVAKAIYKRYIE [Cypep-1] yielded a viability [1] of 81%, a viability [2] of 64% and an average surviving fraction [3] of 7%. The average surviving fraction [4] was 33%, the “cytotoxic effect / potency by crystal violet staining” value ([5]; U87 cells, 7.5, 10, 15, 20 and 25 µg/ml, 3 hours incubation) was “more potent than the parent L- amino acid formula” and the “monolayer appearance by light microscopy” value ([5]; U87 monolayer, 15 µg/ml, 3 hours exposure) was “extensive cell loss”.
